# Where two headings read alike, the source gives them in different places.
# What was measured:
# [1] = test system: PaCa2 (pancreatic) cancer cell line; test: MTT antiproliferation, PaCa-2; assay type: cell-based, human; details: for IC50: Homo sapiens, read-out: IC50 (µM) ± SEM PaCa-2; for SI (selectivity index) PaCa-2: IC50 of RPE1/IC50 of cancer cell line
# Description: (§1) Antiproliferation properties of the targeted agents were investigated by the standard MTT technique against diverse human cancer cell lines [MCF7 (breast), HCT116 (colon), A431 (skin squamous) and PaCa2 (pancreatic)][67] (Table 1, Supplementary Figs. S48‒S51).
# Cells were suspended in DMEM medium for MCF7, A431, PaCa-2 and McCoy’s 5A for HCT116 in addition to 1% antibiotic–antimycotic mixture (10000 μg ml^-1 potassium penicillin, 10000 μg ml^-1 streptomycin sulfate and 25 μg ml^-1 amphotericin B), 10% fetal bovine serum and 1% L-glutamine at 37 °C, under 5% CO2 and 95% humidity. Cells were seeded at concentration of 30000 cells per well in fresh complete growth medium in 96-well tissue culture microtiter plates for 24 h. Media was aspirated, fresh complete medium was added and cells were incubated with different concentrations of the tested compound to give a final concentration of [50, 25, 12.5 and 6.25 μM “in addition to 3.125, 1.56 and 0.78 μM in case of high potent analogues”). 0.5% DMSO was used as negative control. Triplicate wells were prepared for each individual dose. After 72 h of incubation, medium was aspirated, 40 μl MTT salt (2.5 mg ml^-1) was added to each well and incubated for further 4 h at 37 °C. To stop the reaction and dissolve the formed crystals, 150 μl of 10% sodium dodecyl sulfate (SDS) in deionized water was added to each well and incubated overnight at 37 °C. The absorbance was then measured at 570 nm and a reference wavelength of 595 nm.
# (§2) Data were collected as mean values for experiments performed in triplicates for each individual dose which had been measured by MTT assay. […] The cell surviving fraction was calculated according to the following equation.
# (§3) Surviving fraction = OpticaldensityO.D.oftreatedcellsO.D.ofcontrolcells
# (§4) Statistical calculations for determination of the mean and standard error mean values were determined by SPSS 16 software. The observed anti-proliferative properties are presented in Table 1 (Supplementary Figs. S48‒S52).
# AChE = AChE (Homo sapiens, UniProt P22303); test: AChE inhibition (DTNB, acetylthiocholine); assay type: biochemical; details: for IC50: read-out: AChE (IC50, μM) ± SD
# AChE, sequence (P22303 32-614): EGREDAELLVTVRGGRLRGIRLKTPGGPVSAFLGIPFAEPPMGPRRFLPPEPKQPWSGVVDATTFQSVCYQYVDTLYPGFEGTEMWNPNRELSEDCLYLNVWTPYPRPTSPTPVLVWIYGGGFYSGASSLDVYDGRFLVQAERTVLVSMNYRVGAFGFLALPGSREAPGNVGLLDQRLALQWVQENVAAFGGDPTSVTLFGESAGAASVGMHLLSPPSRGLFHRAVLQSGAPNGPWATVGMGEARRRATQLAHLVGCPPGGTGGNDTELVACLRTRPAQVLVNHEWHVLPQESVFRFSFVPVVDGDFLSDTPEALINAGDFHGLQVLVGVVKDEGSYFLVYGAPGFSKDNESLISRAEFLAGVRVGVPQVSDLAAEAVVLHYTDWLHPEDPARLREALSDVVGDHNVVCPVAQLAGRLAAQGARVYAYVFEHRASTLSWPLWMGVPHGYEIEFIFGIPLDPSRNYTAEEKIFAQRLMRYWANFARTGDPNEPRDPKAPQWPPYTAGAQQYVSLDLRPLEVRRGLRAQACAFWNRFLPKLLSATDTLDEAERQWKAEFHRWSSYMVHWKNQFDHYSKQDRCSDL
# Description: All compounds were dissolved in MeOH.
# [2] = test system: SARS-CoV-2 (hCoV-19/Egypt/NRC-03/2020); test: Vero-E6 cell viral infection model, anti-SARS-CoV-2 IC50 (CPE, crystal violet); assay type: cell-based; details: for IC50: Severe acute respiratory syndrome coronavirus 2, Vero C1008; for SI = CC50/IC50: Vero-E6, SARS-CoV-2
# [3] = MTT cytotoxicity assay (CC50); assay type: cell-based; details: African green monkey, VERO-E6 cells
# Description: The cytotoxic activity of the compounds was tested in VERO-E6 cells by using the 3-(4,5-dimethylthiazol-2-yl)-2,5-diphenyltetrazolium bromide (MTT) method with minor modifications. Briefly, the cells were seeded in 96 well-plates […] at a density of 3 x 10^5 cell/ml and incubated for 24 h at 37 °C in 5% CO2. After 24 h, cells were treated with various concentrated of the tested compounds in triplicates. 24 h later, the supernatant was discarded and cell monolayers were washed with sterile 1x phosphate buffer saline (PBS) 3 times and MTT solution (20 µl of 5 mg/ml) was added to each well and incubated at 37 °C for 4 h followed by medium aspiration. In each well, the formed formazan crystals were dissolved with 200 µl of acidified isopropanol (0.04 M HCl in absolute isopropanol = 0.073 ml HCl in 50 ml isopropanol). Eventually, the absorbance was measured at λmax 570 nm using the Anthos Zenyth 200rt plate reader (Anthos Labtec Instruments, Heerhugowaard, Netherlands). The cytotoxicity of various concentrations compared to the untreated cells was determined using nonlinear regression analysis by plotting log inhibitor versus normalized response.^12^-14
# VEGFR-2 = target: T1, VEGFR-2 (Homo sapiens, UniProt P35968); assay type: cell-based; details: western blot, MCF7, compound at its MTT IC50; for VEGFR-2 RQ (relative quantification): control RQ 3.2634
# T1 construct: Western blot technique was considered for EGFR and VEGFR-2 properties determination; endogenous in cells; host or cells: MCF7 (breast cancer cell line)
# T1 sequence (P35968 20-1356): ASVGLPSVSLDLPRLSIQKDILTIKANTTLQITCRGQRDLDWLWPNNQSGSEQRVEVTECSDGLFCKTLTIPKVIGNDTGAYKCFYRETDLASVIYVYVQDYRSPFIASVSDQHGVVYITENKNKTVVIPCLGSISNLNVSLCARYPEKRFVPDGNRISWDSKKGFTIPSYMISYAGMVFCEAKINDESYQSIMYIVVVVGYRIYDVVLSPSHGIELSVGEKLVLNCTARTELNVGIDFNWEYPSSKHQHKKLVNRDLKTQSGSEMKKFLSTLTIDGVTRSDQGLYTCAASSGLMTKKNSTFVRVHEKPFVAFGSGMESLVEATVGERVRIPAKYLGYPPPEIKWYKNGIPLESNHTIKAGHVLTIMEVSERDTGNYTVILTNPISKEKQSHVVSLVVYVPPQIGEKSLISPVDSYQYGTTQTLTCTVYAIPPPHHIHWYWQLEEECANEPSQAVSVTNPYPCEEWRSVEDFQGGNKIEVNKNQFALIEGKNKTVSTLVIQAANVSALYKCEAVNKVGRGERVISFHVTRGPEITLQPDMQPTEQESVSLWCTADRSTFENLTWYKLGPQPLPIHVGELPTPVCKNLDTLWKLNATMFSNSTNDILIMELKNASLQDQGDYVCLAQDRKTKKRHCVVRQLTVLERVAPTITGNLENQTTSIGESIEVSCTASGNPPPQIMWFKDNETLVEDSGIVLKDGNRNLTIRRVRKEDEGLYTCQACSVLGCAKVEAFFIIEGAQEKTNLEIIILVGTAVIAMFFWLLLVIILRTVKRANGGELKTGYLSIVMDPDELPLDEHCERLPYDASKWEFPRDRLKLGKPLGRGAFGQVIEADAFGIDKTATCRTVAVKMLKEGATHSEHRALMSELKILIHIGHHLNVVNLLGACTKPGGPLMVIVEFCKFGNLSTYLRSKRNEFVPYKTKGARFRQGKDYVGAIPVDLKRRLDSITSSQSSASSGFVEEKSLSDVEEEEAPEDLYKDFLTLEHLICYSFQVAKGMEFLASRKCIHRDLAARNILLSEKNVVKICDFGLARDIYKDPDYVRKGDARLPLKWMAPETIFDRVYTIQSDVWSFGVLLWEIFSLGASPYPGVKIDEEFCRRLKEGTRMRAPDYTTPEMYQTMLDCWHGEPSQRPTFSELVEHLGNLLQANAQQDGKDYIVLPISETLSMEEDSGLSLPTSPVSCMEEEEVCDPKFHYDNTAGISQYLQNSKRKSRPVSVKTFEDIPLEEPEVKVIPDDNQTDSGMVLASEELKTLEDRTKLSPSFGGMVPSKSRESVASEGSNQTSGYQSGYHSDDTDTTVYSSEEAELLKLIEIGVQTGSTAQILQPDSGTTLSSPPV
# Text: (§5) The western blot technique was applied utilizing the IC50 observed for each respective agent synthesized during MTT assay[85],[86]. Consideration of multi-targeted inhibitory properties investigation is based in the fact that cancer initiation and proliferation sometimes utilizes many receptors or signaling pathways.
# (§6) Western blot technique was considered for EGFR and VEGFR-2 properties determination utilizing the IC50 observed of each respective agent synthesized during MTT assay against MCF7 (breast) cancer cell line. All the studies were conducted according to the manufacturer’s instruction.^10,^11
# EGFR = target: T2, EGFR (Homo sapiens, UniProt P00533); assay type: cell-based; details: western blot, MCF7, compound at its MTT IC50; for EGFR RQ (relative quantification): control RQ 3.4461
# T2 construct: Western blot technique was considered for EGFR and VEGFR-2 properties determination; endogenous in cells; host or cells: MCF7 (breast cancer cell line)
# T2 sequence (P00533 25-1210): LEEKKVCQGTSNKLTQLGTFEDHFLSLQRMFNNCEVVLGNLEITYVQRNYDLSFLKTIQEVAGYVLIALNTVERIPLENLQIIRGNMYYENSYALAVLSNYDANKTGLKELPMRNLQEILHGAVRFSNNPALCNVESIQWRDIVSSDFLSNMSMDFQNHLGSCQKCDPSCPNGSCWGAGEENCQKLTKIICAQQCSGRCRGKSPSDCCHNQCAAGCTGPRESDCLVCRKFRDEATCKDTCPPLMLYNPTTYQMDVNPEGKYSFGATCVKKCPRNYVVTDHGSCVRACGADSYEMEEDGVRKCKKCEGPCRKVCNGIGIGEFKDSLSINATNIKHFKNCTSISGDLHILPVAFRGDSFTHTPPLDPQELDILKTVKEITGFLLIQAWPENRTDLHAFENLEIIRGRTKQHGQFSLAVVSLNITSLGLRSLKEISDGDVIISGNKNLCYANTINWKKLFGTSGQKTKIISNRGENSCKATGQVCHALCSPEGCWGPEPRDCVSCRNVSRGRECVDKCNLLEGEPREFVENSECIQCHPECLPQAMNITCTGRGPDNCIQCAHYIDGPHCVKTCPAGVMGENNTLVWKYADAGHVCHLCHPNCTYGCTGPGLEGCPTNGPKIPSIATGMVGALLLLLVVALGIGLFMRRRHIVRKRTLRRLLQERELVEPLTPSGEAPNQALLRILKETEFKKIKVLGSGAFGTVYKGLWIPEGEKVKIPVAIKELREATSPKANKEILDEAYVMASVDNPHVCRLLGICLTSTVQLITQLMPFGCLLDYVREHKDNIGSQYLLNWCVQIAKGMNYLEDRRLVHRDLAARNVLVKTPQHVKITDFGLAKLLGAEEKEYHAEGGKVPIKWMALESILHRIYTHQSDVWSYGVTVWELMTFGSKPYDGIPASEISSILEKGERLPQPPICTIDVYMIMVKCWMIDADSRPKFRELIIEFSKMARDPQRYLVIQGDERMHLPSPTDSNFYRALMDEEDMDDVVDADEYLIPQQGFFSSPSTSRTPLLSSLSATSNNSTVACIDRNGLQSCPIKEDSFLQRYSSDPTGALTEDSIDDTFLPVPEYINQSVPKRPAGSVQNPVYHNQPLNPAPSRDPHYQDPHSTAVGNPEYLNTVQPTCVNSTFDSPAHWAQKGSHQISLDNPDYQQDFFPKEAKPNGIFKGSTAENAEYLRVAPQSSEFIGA
# Text: as §5, §6
# [4] = test system: HCT116 (colon) cancer cell line; test: MTT antiproliferation, HCT116; assay type: cell-based, human; details: for IC50: Homo sapiens, HCT-116, 72 h, read-out: IC50 (µM) ± SEM HCT116; for SI (selectivity index) HCT116: IC50 of RPE1/IC50 of cancer cell line
# Description: as §1
# (§7) Cells were seeded at concentration of 30000 cells per well in fresh complete growth medium in 96-well tissue culture microtiter plates for 24 h. […] 0.5% DMSO was used as negative control. Triplicate wells were prepared for each individual dose. After 72 h of incubation, medium was aspirated, 40 μl MTT salt (2.5 mg ml^-1) was added to each well and incubated for further 4 h at 37 °C. To stop the reaction and dissolve the formed crystals, 150 μl of 10% sodium dodecyl sulfate (SDS) in deionized water was added to each well and incubated overnight at 37 °C.
# as §2, §3
# (§8) Statistical calculations for determination of the mean and standard error mean values were determined by SPSS 16 software.
# [5] = test system: A431 (skin squamous) cancer cell line; test: MTT antiproliferation, A431; assay type: cell-based, human; details: for IC50: Homo sapiens; for SI (selectivity index) A431: IC50 of RPE1/IC50 of cancer cell line
# Description: as §1, §7, §2, §3, §8
# [6] = test system: RPE1 (normal human immortalized retinal pigment epithelial cell line); test: MTT toxicity towards normal cells, RPE1; assay type: cell-based; details: RPE-1, read-out: IC50 (µM) ± SEM RPE1
# Description: The safety of the synthesized agents against non-cancer/normal RPE1 (retinal pigment epithelium) cell line was assessed (Table 1, Supplementary Fig. S52). The SI (selectivity index) for the tested compounds against RPE1 cell line confirms the safety towards non-cancer cells. […] Compound 6d and 6h which are also of high anti-PaCa2 show remarkable SI values (SI = > 3.8, > 3.6, respectively).
# The agents synthesized were also tested against RPE1 (normal human immortalized retinal pigment epithelial cell line) cell (in DMEM-F12 medium) to determine the toxicity/selectivity towards normal cells relative to the cancer cell lines utilized.
# as §4
# [7] = test system: MCF7 (breast) cancer cell line; test: MTT antiproliferation, MCF7; assay type: cell-based, human; details: for IC50: Homo sapiens, MCF7, 72 h, read-out: IC50 (µM) ± SEM MCF7; for SI (selectivity index) MCF7: IC50 of RPE1/IC50 of cancer cell line
# Description: as §1, §7, §2, §3, §8
# BChE = BChE (Homo sapiens, UniProt P06276); test: BChE inhibition (DTNB, butyrylthiocholine iodide)
# BChE, sequence (P06276 29-602, species assumed): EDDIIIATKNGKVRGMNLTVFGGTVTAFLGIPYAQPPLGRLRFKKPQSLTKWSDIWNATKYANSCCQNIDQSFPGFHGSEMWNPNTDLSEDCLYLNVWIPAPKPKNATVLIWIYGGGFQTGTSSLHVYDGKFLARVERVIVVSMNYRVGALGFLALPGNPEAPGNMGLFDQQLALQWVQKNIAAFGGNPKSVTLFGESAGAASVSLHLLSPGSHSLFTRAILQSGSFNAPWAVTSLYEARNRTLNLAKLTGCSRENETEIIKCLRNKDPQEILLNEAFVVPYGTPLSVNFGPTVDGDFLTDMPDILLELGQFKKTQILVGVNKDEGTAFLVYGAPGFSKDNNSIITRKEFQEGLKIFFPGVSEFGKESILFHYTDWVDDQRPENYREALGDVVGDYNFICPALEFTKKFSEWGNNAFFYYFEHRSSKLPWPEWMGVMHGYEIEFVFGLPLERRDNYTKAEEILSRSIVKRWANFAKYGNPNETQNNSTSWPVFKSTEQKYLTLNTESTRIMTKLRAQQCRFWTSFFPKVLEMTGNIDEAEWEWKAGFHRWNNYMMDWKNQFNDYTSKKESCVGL
# [8] = Vero-E6, 72 h, reduction of virus-induced CPE, read-out: IC50 (µM) SARS-CoV-2
# [9] = log of observed IC50 in μM, read-out: Observed log(IC50, μM) (SARS-CoV-2) (converted)
# [10] = A-431, 72 h, read-out: IC50 (µM) ± SEM A431
# [11] = A-431, read-out: Observed log(IC50, μM) (A431) (converted)
SMILES,"IC50 ([1]; PaCa-2, 72 h)",SI (selectivity index) PaCa-2 [1],SI = IC50 (AChE)/IC50 (BChE) (AChE),IC50 (AChE),"IC50 [2, 8]","IC50 [2, 9]",SI = CC50/IC50 [2],CC50 at 24 h [3],VEGFR-2 % Inhibition (VEGFR-2),VEGFR-2 RQ (relative quantification) (VEGFR-2),EGFR % Inhibition (EGFR),EGFR RQ (relative quantification) (EGFR),IC50 [4],SI (selectivity index) HCT116 [4],"IC50 [5, 10]","IC50 [5, 11]",SI (selectivity index) A431 [5],IC50 [6],IC50 [7],IC50 (BChE),also measured
"CN1CC(c2ccccc2)C2(CN(S(C)(=O)=O)C/C(=C\c3ccccc3)C2=O)C12C(=O)Nc1ccccc12 (centres unmarked) [Compound 6a, (E)-5″-Benzylidene-1′-methyl-1″-(methylsulfonyl)-4′-phenyldispiro[indoline-3,2′-pyrrolidine-3′,3″-piperidine]-2,4″-dione]",48.4 ± 2.23 µM,> 1.0,1.1,22.2 ± 3.35 µM,34.3 µM,34.3 µM,158.6,5430 µM,60.9%,1.2773,66.4%,1.1593,16 ± 1.1 µM,> 3.1,32.3 ± 1.14 µM,32.3 µM,> 1.5,> 50 µM,19.8 ± 0.99 µM,19.8 ± 2.18 µM,SI (selectivity index) MCF7 [7]: > 2.5
"CN1CC(c2ccccc2)C2(CN(S(C)(=O)=O)C/C(=C\c3ccccc3)C2=O)C12C(=O)Nc1ccc(Cl)cc12 (centres unmarked) [Compound 6b, (E)-5″-Benzylidene-5-chloro-1′-methyl-1″-(methylsulfonyl)-4′-phenyldispiro[indoline-3,2′-pyrrolidine-3′,3″-piperidine]-2,4″-dione]",20.6 ± 1.17 µM,1.2,0.9,27.7 ± 5.45 µM,9.63 µM,9.63 µM,132.0,1270 µM,64.2%,1.167,54.1%,1.5804,6.92 ± 0.52 µM,3.6,9.15 ± 0.7 µM,9.15 µM,2.7,24.7 ± 1.26 µM,7.66 ± 0.68 µM,29.2 ± 3.62 µM,SI (selectivity index) MCF7 [7]: 3.2
"CCS(=O)(=O)N1C/C(=C\c2ccccc2)C(=O)C2(C1)C(c1ccccc1)CN(C)C21C(=O)Nc2ccccc21 (centres unmarked) [Compound 6c, (E)-5″-Benzylidene-1″-(ethylsulfonyl)-1′-methyl-4′-phenyldispiro[indoline-3,2′-pyrrolidine-3′,3″-piperidine]-2,4″-dione]",> 50 µM,,1.2,78 ± 3.26 µM,103 µM,103 µM,55.5,5700 µM,63.8%,1.18,69.6%,1.0493,6.12 ± 0.44 µM,> 8.2,33.2 ± 0.91 µM,33.2 µM,> 1.5,> 50 µM,> 50 µM,65.4 ± 2.42 µM,
"CCS(=O)(=O)N1C/C(=C\c2ccccc2)C(=O)C2(C1)C(c1ccccc1)CN(C)C21C(=O)Nc2ccc(Cl)cc21 (centres unmarked) [Compound 6d, (E)-5″-Benzylidene-5-chloro-1″-(ethylsulfonyl)-1′-methyl-4′-phenyldispiro[indoline-3,2′-pyrrolidine-3′,3″-piperidine]-2,4″-dione]",13.1 ± 1.1 µM,> 3.8,1.2,41 ± 7.03 µM,171 µM,171 µM,101.1,17300 µM,63.8%,1.181,62.9%,1.2774,5.18 ± 0.61 µM,> 9.7,4.96 ± 0.25 µM,4.96 µM,> 10.1,> 50 µM,6.92 ± 0.55 µM,34.4 ± 2 µM,SI (selectivity index) MCF7 [7]: > 7.2
"CN1CC(c2ccc(F)cc2)C2(CN(S(C)(=O)=O)C/C(=C\c3ccc(F)cc3)C2=O)C12C(=O)Nc1ccccc12 (centres unmarked) [Compound 6e, (E)-5″-(4-Fluorobenzylidene)-4′-(4-fluorophenyl)-1′-methyl-1″-(methylsulfonyl)dispiro[indoline-3,2′-pyrrolidine-3′,3″-piperidine]-2,4″-dione]",39.9 ± 1.89 µM,1.2,0.7,15.1 ± 5.76 µM,27.9 µM,27.9 µM,7.3,203 µM,64.5%,1.158,66.7%,1.147,9.89 ± 0.85 µM,5.0,16.1 ± 0.99 µM,16.1 µM,3.1,49 ± 1.11 µM,15.5 ± 0.76 µM,22.2 ± 4.54 µM,SI (selectivity index) MCF7 [7]: 3.2
"CCN(CC)CCNC(=O)c1c(C)[nH]c(/C=C2\C(=O)Nc3ccc(F)cc32)c1C [Sunitinib, reference compound]",,,,,,,,,,,,,,,,,,,,,"IC50 ([1]; MTT, 72 h, PaCa-2): 16.9 ± 0.95 µM"

# Reference: paper PMC9380671, “Development of spiro-3-indolin-2-one containing compounds of antiproliferative and anti-SARS-CoV-2 properties” (Scientific Reports, 2022)
